In patent US20230265116A1, “DEGRADATION OF (EGFR) BY CONJUGATION OF EGFR INHIBITORS WITH E3 LIGASE LIGAND AND METHODS OF USE” (BEIGENE, LTD., priority 2020, published 2023):
Where two headings read alike, the source gives them in different places.

Columns and labels:
Assay type in all cases: cell-based
[1] = tested on: EGFR Del19/C797S (H1975-clone #23); assay: EGFR degradation HTRF assay, H1975-clone #23 DC cells; details: for H1975 #23 DC Dmax (%): maximum percentage of degradation
Experimental: H1975-clone #28(Del19/T790M/C797S) and H1975-clone #23(Del19/C797S). EGFR-Del19/T790M/C797S and EGFR-Del19/C797S were stably expressed in H1975 cell lines by lentivirus-mediated over-expression, respectively. The EGFR over-expressed cells then underwent gene knockout, in which the EGFR targeting sgRNA was designed to only target the endogenous EGFR copies and preserve the exogenous EGFR copies. Followed by the gene knockout, the edited H1975 cells were seeded in 96 well plates at the concentration of 1 cell/well, cultured for about 2 weeks to allow single clones formation. The formed clones were screened by DNA sequencing and whole exon sequencing analysis for the desired edition. H1975-clone #28 and H1975-clone #23 were finally confirmed as homozygous Del19/T790M/C797S EGFR and Del19/C797S EGFR clones, respectively.
BaF3 WT(wild type), BaF3-LTC(L858R/T790M/C797S) and BaF3-DTC(Del19/T790M/C797S) cells are treated with compounds diluted in 0.2% DMSO cell culture medium and incubate for 16h, 37° C., 5% CO2, H1975-#36, H1975-#28, H1975-#23 and HCC827 cells are treated with compounds diluted in 0.2% DMSO cell culture medium on day 2, incubate for 16h, 37° C., 5% CO2.the final concentriation of compounds in all assay is start with 10 uM, 5-fold dilution, total 8 doses were included.
After 16h treatment, add HTRF lysis buffer to each well; seal the plate and incubate 1 hour at room temperature on a plate shaker; Once the cells are lysed, 16 μL of cell lysate are transferred to a PE 384-well HTRF detection plate; 4 μL of pre-mixed HTRF antibodies are added to each well; Cover the plate with a plate sealer, spin 1000 rpm for 1 min, Incubate overnight at room temperature; Read on BMG PheraStar with HTRF protocol (337 nm-665 nm-620 nm).
The inhibition (degradation) percentage of the compound was calculated by the following equation: Inhibition percentage of Compound=100-100×(Signal-low control)/(High control-low control), wherein signal=each test compound group
High control=Cell group with added DMSO and without compound, indicating microplate readings without EGFR degradation;
Dmax is the maximum percentage of inhibition (degradation).
The IC50 (DC50) value of a compound can be obtained by fitting the following equation
Y=Bottom+(TOP−Bottom)/(1+((IC50/X)^hillslope))
Wherein, X and Y are known values, and IC50, Hillslope, Top and Bottom are the parameters obtained by fitting with software. Y is the inhibition percentage (calculated from the equation), X is the concentration of the compound; IC50 is the concentration of the compound when the 50% inhibition is reached. The smaller the IC50 value is, the stronger the inhibitory ability of the compound is. Vice versa, the higher the IC50 value is, the weaker the inhibitory ability of the compound is; Hillslope represents the slope of the fitted curve, generally around 1*; Bottom represents the minimum value of the curve obtained by data fitting, which is generally 0%±20%; Top represents the maximum value of the curve obtained by data fitting, which is generally 100%±20%. The experimental data were fitted by calculating and analyzing with Dotmatics data analysis software.

[2] = target: T1, EGFR L858R/C797S (BaF3 LC cells) (Homo sapiens, UniProt P00533, C797S/L858R); assay: EGFR degradation HTRF assay, BaF3 LC cells
T1 construct: expressed in transfected cells; host or cells: BaF3
T1 sequence (P00533 25-1210 C797S/L858R): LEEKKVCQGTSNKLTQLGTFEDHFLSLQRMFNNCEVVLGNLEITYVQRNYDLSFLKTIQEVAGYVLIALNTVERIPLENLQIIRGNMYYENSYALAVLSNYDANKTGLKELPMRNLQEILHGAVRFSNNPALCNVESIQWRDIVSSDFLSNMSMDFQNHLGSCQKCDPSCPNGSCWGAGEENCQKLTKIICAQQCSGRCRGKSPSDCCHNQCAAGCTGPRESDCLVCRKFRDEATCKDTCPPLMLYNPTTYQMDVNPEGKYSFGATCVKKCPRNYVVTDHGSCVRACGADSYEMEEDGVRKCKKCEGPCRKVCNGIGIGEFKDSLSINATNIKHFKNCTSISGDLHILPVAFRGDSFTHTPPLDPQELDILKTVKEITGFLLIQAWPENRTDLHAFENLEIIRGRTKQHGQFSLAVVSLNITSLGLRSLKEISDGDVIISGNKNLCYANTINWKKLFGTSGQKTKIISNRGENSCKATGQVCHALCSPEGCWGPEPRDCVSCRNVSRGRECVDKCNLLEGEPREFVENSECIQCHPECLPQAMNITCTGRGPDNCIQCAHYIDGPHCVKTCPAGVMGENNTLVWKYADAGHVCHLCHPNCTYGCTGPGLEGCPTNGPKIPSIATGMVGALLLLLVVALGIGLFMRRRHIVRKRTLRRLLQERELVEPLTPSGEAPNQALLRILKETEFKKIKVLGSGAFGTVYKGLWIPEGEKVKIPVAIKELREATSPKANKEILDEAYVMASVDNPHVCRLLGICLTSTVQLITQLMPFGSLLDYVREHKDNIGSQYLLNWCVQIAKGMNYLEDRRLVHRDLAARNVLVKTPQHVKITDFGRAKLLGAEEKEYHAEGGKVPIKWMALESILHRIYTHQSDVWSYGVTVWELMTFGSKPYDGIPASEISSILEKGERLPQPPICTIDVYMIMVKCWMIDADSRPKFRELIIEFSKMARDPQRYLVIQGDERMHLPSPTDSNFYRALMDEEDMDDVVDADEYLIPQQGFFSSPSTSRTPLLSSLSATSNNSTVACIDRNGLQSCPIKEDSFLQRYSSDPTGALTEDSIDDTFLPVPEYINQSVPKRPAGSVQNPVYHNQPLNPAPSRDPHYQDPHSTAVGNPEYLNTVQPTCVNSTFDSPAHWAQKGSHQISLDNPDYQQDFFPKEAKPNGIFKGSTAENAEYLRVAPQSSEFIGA

[3] = tested on: EGFR Del19/T790M/C797S (H1975-clone #28); assay: EGFR degradation HTRF assay, H1975-clone #28 DTC cells
Procedure, shortened: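 Read-out is an HTRF EGFR signal (337 nm excitation, 665/620 nm) from lysates of mutant-EGFR H1975 clones in which only the exogenous EGFR survives knockout. Treatment ran 16h at 37° C. from 10 uM final downward in 5-fold steps. DC50 comes from a logistic fit and Dmax is the maximal degradation.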

[4] = target: T2, EGFR L858R/T790M/C797S (BaF3-LTC cells) (Homo sapiens, UniProt P00533, C797S/L858R/T790M); assay: EGFR degradation HTRF assay, BaF3-LTC cells
T2 construct: expressed in transfected cells; host or cells: BaF3
T2 sequence (P00533 25-1210 T790M/C797S/L858R): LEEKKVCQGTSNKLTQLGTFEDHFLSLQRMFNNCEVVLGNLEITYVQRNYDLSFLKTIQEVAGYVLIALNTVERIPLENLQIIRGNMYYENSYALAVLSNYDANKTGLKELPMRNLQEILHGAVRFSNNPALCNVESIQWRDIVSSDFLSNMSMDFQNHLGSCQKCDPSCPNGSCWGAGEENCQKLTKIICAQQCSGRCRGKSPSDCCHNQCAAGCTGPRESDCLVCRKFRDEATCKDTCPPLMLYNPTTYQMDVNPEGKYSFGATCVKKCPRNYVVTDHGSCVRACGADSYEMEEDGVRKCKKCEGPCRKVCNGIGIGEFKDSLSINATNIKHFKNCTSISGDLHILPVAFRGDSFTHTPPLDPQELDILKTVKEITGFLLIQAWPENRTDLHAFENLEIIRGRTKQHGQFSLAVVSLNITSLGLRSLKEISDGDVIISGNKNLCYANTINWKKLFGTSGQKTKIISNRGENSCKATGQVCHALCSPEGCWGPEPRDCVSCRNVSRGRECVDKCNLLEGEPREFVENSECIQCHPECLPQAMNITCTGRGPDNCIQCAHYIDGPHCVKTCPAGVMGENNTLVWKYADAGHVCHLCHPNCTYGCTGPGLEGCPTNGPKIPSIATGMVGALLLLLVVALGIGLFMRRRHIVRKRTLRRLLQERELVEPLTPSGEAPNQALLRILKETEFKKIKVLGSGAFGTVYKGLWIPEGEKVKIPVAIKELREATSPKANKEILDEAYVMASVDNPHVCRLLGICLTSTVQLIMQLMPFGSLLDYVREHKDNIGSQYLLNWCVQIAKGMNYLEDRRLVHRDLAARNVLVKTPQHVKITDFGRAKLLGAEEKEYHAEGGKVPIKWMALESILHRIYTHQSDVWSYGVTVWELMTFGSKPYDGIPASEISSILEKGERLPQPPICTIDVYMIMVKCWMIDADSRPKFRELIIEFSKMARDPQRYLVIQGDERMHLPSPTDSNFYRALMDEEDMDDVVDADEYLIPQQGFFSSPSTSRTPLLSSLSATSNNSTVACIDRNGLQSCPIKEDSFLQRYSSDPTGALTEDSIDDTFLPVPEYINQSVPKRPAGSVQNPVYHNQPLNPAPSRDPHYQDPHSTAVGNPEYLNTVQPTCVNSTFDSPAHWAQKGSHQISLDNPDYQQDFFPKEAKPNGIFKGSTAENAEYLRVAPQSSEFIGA
Procedure, shortened: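 EGFR remaining after a 16 h, 37 °C exposure (8 doses, 5-fold steps from 10 uM final, 0.2% DMSO) was quantified by HTRF antibodies in cell lysate. Percent inhibition relative to DMSO control was fitted by four-parameter logistic to give DC50; Dmax denotes maximal degradation.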

[5] = H1975 #23 DC, 16h treatment, read-out: H1975 #23 DC DC50
[6] = BaF3 LC, 16h treatment, maximum percentage of degradation; read-out: BaF3 LC Dmax (%)
[7] = BaF3 LC, 16h treatment; read-out: BaF3 LC DC50
[8] = H1975 # 28 DTC cells; EGFR degradation, IC50 (DC50) from curve fit; read-out: DC50(nM) H1975 # 28 DTC
[9] = H1975 # 28 DTC cells; maximum percentage of inhibition (degradation)
[10] = BaF3-LTC cells; EGFR degradation, IC50 (DC50) from curve fit; read-out: DC50(nM) BaF3-LTC
[11] = BaF3-LTC cells; maximum percentage of inhibition (degradation); read-out: Dmax (%) BaF3-LTC

SMILES	H1975 #23 DC Dmax (%) ([1]; 16h treatment)	DC50 [1, 5]	Dmax [2, 6]	DC50 [2, 7]	DC50 [3, 8]	Dmax (%) H1975 # 28 DTC [3, 9]	DC50 [4, 10]	Dmax [4, 11]	DC50 ([1]; read-out: H1975 #23 DC DC50, 16h treatment)	Dmax ([2]; BaF3, read-out: BaF3 LC Dmax (%))	DC50 ([2]; read-out: BaF3 LC DC50; BaF3 LC, 16h treatment)	DC50 ([3]; read-out: DC50(nM) H1975 # 28 DTC; H1975 # 28 DTC cells; EGFR degradation, IC50 (DC50) from curve fit)	DC50 ([4]; read-out: DC50(nM) BaF3-LTC; BaF3-LTC cells; EGFR degradation, IC50 (DC50) from curve fit)	Dmax ([4]; read-out: Dmax (%) BaF3-LTC, BaF3-LTC cells; maximum percentage of inhibition (degradation))
CCOc1cc(N2CCC(N3CCN(CC4CN(c5cc(F)cc6c5oc(=O)n6C5CCC(=O)NC5=O)C4)CC3)CC2)c(CC)cc1Nc1ncc(Br)c(Nc2ccc3nc(CC)ccc3c2P(C)(C)=O)n1 (stereo not drawn) [Example 479, 3-(7-(3-((4-(1-(4-((5-bromo-4-((5-(dimethylphosphoryl)-2-ethylquinolin-6-yl)amino)pyrimidin-2-yl)amino)-5-ethoxy-2-ethylphenyl)piperidin-4-yl)piperazin-1-yl)methyl)azetidin-1-yl)-5-fluoro-2-oxobenzo[d]oxazol-3(2H)-yl)piperidine-2,6-dione]	76.53%	4.91 nM	82.7%	20.3 nM	2.81 nM	95.6%	7.8 nM	88.8%						
CCOc1cc(N2CCC(N3CCN(C(=O)C4CCN(c5cccc6c5oc(=O)n6C5CCC(=O)NC5=O)CC4)CC3)CC2)c(CC)cc1Nc1ncc(Br)c(Nc2ccc3nc(CC)ccc3c2P(C)(C)=O)n1 (stereo not drawn) [Example 481, 3-(7-(4-(4-(1-(4-((5-bromo-4-((5-(dimethylphosphoryl)-2-ethylquinolin-6-yl)amino)pyrimidin-2-yl)amino)-5-ethoxy-2-ethylphenyl)piperidin-4-yl)piperazine-1-carbonyl)piperidin-1-yl)-2-oxobenzo[d]oxazol-3(2H)-yl)piperidine-2,6-dione]	64.14%					77.65%			1.06 nM	91.9%	0.871 nM	2.14 nM	5.27 nM	86.5%
CCOc1cc(N2CCC(N3CCN(CCc4cc(F)c(C5CCC(=O)NC5=O)c(F)c4)CC3)CC2)c(CC)cc1Nc1ncc(Br)c(Nc2ccc3nc(C)ccc3c2P(C)(C)=O)n1 (stereo not drawn) [Example 482, 3-(4-(2-(4-(1-(4-((5-bromo-4-((5-(dimethylphosphoryl)-2-methylquinolin-6-yl)amino)pyrimidin-2-yl)amino)-5-ethoxy-2-ethylphenyl)piperidin-4-yl)piperazin-1-yl)ethyl)-2,6-difluorophenyl)piperidine-2,6-dione]	70.91%	7.2 nM	73.4%	50.8 nM	1.86 nM	69.65%	12.9 nM	88.7%						
CCOc1cc(N2CCC(N3CCN(CCc4cc(F)c([C@H]5CCC(=O)NC5=O)c(F)c4)CC3)CC2)c(CC)cc1Nc1ncc(Br)c(Nc2ccc3nc(CC)ccc3c2P(C)(C)=O)n1 [Example 483, (R)-3-(4-(2-(4-(1-(4-((5-bromo-4-((5-(dimethylphosphoryl)-2-ethylquinolin-6-yl)amino)pyrimidin-2-yl)amino)-5-ethoxy-2-ethylphenyl)piperidin-4-yl)piperazin-1-yl)ethyl)-2,6-difluorophenyl)piperidine-2,6-dione]	70.71%	7.19 nM		69 nM	2.02 nM	81.31%	26.6 nM							
CCc1ccc2c(P(C)(C)=O)c(Nc3nc(Nc4cc(CC)c(N5CCC(N6CCN(CCc7cc(F)c(C8CCC(=O)NC8=O)c(F)c7)CC6)CC5)cc4OC)ncc3Br)ccc2n1 (stereo not drawn) [Example 485, 3-(4-(2-(4-(1-(4-((5-bromo-4-((5-(dimethylphosphoryl)-2-ethylquinolin-6-yl)amino)pyrimidin-2-yl)amino)-2-ethyl-5-methoxyphenyl)piperidin-4-yl)piperazin-1-yl)ethyl)-2,6-difluorophenyl)piperidine-2,6-dione]	82.7%	10.4 nM		35.1 nM	2.78 nM	70.65%	26.9 nM							
